Experimental data published in ChEMBL document CHEMBL1135223, “Peptidomimetics of efflux pump inhibitors potentiate the activity of levofloxacin in Pseudomonas aeruginosa” (2002).

Columns and labels:
Pseudomonas aeruginosa [1] = assay: Minimum concentration required to reduce (potentiate) the MIC of levofloxacin of Pseudomonas aeruginosa by 8-folds; type: functional
Pseudomonas aeruginosa [2] = assay: Tested for the minimum inhibitory concentration (MIC) against growth of PAM 1032, a strain of Pseudomonas aeruginosa; type: functional

SMILES	MIC (Pseudomonas aeruginosa [2]) [µg/mL]	MPC8 (Pseudomonas aeruginosa [1]) [µg/mL]
NCCC[C@@H](N)C(=O)N[C@H](CCc1ccccc1)C(=O)Nc1cnc2ccccc2c1	> 512	10
NCCC[C@@H](N)C(=O)N[C@H](CCc1ccccc1)C(O)c1nc2ccccc2o1.O=C(O)C(F)(F)F.O=C(O)C(F)(F)F (some centres undefined)	> 512	10
NCCC[C@@H](N)C(=O)N(CCC(=O)Nc1cnc2ccccc2c1)CCc1ccccc1.O=C(O)C(F)(F)F.O=C(O)C(F)(F)F	> 512	10
NCCC[C@@H](N)C(=O)N[C@H](CCc1ccccc1)C(O)c1nc2ccccc2s1.O=C(O)C(F)(F)F.O=C(O)C(F)(F)F (some centres undefined)	512	20
CC(C)CCN(CCC(=O)Nc1cnc2ccccc2c1)C(=O)[C@H](N)CCCN.O=C(O)C(F)(F)F.O=C(O)C(F)(F)F	> 512	10
NCCC[C@@H](N)C(=O)N[C@H](CCc1ccccc1)C(O)c1nc2ccccc2[nH]1.O=C(O)C(F)(F)F.O=C(O)C(F)(F)F (some centres undefined)	> 512	20
COc1ccc(CCN(CCC(=O)Nc2cnc3ccccc3c2)C(=O)[C@H](N)CCCN)cc1.O=C(O)C(F)(F)F.O=C(O)C(F)(F)F	512	10
Cc1ccc(CCN(CCC(=O)Nc2cnc3ccccc3c2)C(=O)[C@H](N)CCCN)cc1.O=C(O)C(F)(F)F.O=C(O)C(F)(F)F	256	5

Continued by falling MIC (Pseudomonas aeruginosa [2]), values first:

MIC (Pseudomonas aeruginosa [2]) [µg/mL]	SMILES	MPC8 (Pseudomonas aeruginosa [1]) [µg/mL]
256	NCCC[C@@H](N)C(=O)N[C@H](CCc1ccccc1)C(O)c1nc2cc(Cl)ccc2o1.O=C(O)C(F)(F)F.O=C(O)C(F)(F)F (some centres undefined)	5
128	NCCC[C@@H](N)C(O)CN[C@H](CCc1ccccc1)C(=O)Nc1cnc2ccccc2c1.O=C(O)C(F)(F)F.O=C(O)C(F)(F)F (some centres undefined)	2.5
128	Cc1cc2nc(C(O)[C@@H](CCc3ccccc3)NCC(O)[C@H](N)CCCN)oc2cc1C.O=C(O)C(F)(F)F.O=C(O)C(F)(F)F (some centres undefined)	1.25
128	NCCC[C@@H](N)C(=O)N[C@H](CCc1ccccc1)c1nc(C(=O)Nc2cnc3ccccc3c2)co1.O=C(O)C(F)(F)F.O=C(O)C(F)(F)F	5
128	NCCC[C@@H](N)C(=O)N[C@H](CCc1ccccc1)COc1ccc(Cl)cc1.O=C(O)C(F)(F)F.O=C(O)C(F)(F)F	5
128	Cc1cc2nc(C(O)[C@@H](CCc3ccccc3)NC(=O)[C@H](N)CCCN)oc2cc1C.O=C(O)C(F)(F)F.O=C(O)C(F)(F)F (some centres undefined)	2.5
64	NCCC[C@@H](N)C(=O)N[C@H](CCc1ccccc1)CSc1ccc(Cl)cc1.O=C(O)C(F)(F)F.O=C(O)C(F)(F)F	1.25
64	NCCC[C@@H](N)C(O)CN[C@H](CCc1ccccc1)c1nc(C(=O)Nc2cnc3ccccc3c2)co1.O=C(O)C(F)(F)F.O=C(O)C(F)(F)F (some centres undefined)	5
16	NCCC[C@@H](N)C(=O)N[C@H](CCc1ccccc1)c1nc(C(=O)Nc2ccc3ccccc3c2)co1.O=C(O)C(F)(F)F.O=C(O)C(F)(F)F	2.5
